Where two headings read alike, the source gives them in different places.
Legend:
[1] = target: Ba/F3 EGFR D770_N771insSVD cells (Homo sapiens, UniProt P00533, DUP768-770, cells depend on it); test: Inhibition of cell proliferation, CTG method, Ba/F3 EGFR D770_N771insSVD; type: cell-based; conditions: 72 hours, read-out: Ba/F3 EGFR D770_N771insSVD IC50
Description: (§1) The present application examined the in vitro anti-proliferative activity of the compounds of the present disclosure against in vitro cultured HCC-827, Ba/F3-EGFR-VIII and Ba/F3 EGFR D770_N771insSVD cell lines by CTG method.
(§2) Reagents and consumables: RPMI1640 (ThermoFisher, Cat. No. C11875500BT); DMEM (ThermoFisher, C11995500BT); fetal bovine serum (Hyclone, Cat. No. SV30087.03); 0.25% trypsin-EDTA (ThermoFisher, Cat. No. 25200072); penicillin-streptomycin (Hyclone, Cat. No. SV30010); DMSO (Life Science, Cat. No. 0231-500ML); CTG assay kit (Promega, Cat. No. G9243); 96-well plate (Corning, Cat. No. 3599); multifunctional plate reader (Perkin Elmer, Cat. No. Envision)
(§3) Cell lines: HCC-827 (from ATCC), Ba/F3-EGFR-VIII and Ba/F3 EGFR D770_N771insSVD (all from KYinno Biotechnology (Beijing) Co., Ltd.); all of the above cells were cultured with RPMI1640 medium containing 10% fetal bovine serum, 100 U/mL penicillin, and 100 μg/mL streptomycin in the culture process, and HCC-827 was cultured with DMEM medium containing 10% fetal bovine serum, 100 U/mL penicillin, and 100 μg/mL streptomycin.
(§4) • 1. The assay compound was dissolved with DMSO to form a stock solution and a gradient dilution was performed, followed by dilution with the corresponding medium to obtain a solution with 5-fold working concentration. • 2. Cells in logarithmic growth phase were adjusted to specific cell densities by dilution with culture medium, and 80 μL of cell suspension was added to a 96-well plate, such that plating densities of cells of HCC-827, Ba/F3-EGFR-VIII and Ba/F3 EGFR D770_N771insSVD were all 3000 cells/well. The cells of Ba/F3-EGFR-VIII and Ba/F3 EGFR D770_N771insSVD were used directly in the next step (treatment with compound), whereas the HCC-827 needed to be cultured overnight in a 37° C., 5% carbon dioxide gas incubator to adhere to the wall, and then treated with compounds. • 3. 20 μL of compound solution was added to each well of the 96-well plate that had been inoculated with cells. The highest concentration of the assayed compound was 10 μM, 4-fold serial dilution, a total of 9 concentrations, and duplicate wells. A control group without compound was also set up. • 4. The cells were cultured for another 72 hours, and then cell viability was detected by CTG assay kit. Signal values were read with a multifunctional plate reader (Perkin Elmer). GraphPad Prism software was used to create a dose-response curve and IC50 was calculated.

[2] = Pharmacokinetics in SD rats after single oral and intravenous administration; type: in vivo; conditions: rat; for concentration at 0 hr: time point 0 hr; for concentration at 0.25 hr: time point 0.25 hr; for concentration at 0.5 hr: time point 0.5 hr; for concentration at 1 hr: time point 1 hr; for concentration at 2 hr: time point 2 hr; for concentration at 4 hr: time point 4 hr; for concentration at 7 hr: time point 7 hr
Protocol: In this assay, the pharmacokinetic characteristics and ability to penetrate the blood-brain barrier of the compounds of the present application were assayed after administration of some of the compounds of the present application to SD rats by single oral administration and intravenous injection.
• 1. Intravenous (IV) injection group: an appropriate amount of the assay compound was weighed, and completely dissolved in an appropriate volume of vehicle (DMSO/Solutol/H2O=5/10/85 V/V/V with 2 times mole of HCl). The mixture was stirred, vortexed and/or sonicated. Once a solution was obtained, the vehicle was gradually added to a final volume to reach the target concentration. The solution was vortexed, and sonicated to obtain a homogeneous solution. The solution was filtered through a 0.22 μm PVDF membrane. • 2. Oral (PO) group: an appropriate amount of the assay compound was weighed, and completely dissolved in an appropriate volume of vehicle (DMSO/Solutol/H2O=5/10/85 V/V/V with 2 times mole of HCl). The mixture was stirred, vortexed and/or sonicated. Once a solution was obtained, the vehicle was gradually added to a final volume to reach the target concentration. The solution was vortexed, and sonicated to obtain a homogeneous solution. (iii) Administration and Sampling of Rats
Meanwhile, the IV group was not fasted and the PO group was fasted overnight (>12 hrs) and given food 2 hrs after drug administration. All animals had free access to water. The dosing regimen and pharmacokinetic sampling regimen are given in Table 6 and Table 7 below, respectively.
Rats were administered according to the above regimen, and blood and brain tissue samples were collected and processed at predetermined time points (collection and processing were performed according to conventional methods in the art).
Brains were weighed and homogenized by adding 4-fold homogenizing solution (acetonitrile/water=1/1). Six times volume of acetonitrile was added respectively to the whole blood samples and brain homogenate. The mixture was vortexed for 1 min and then centrifuged at 4° C., 4500 rpm for 15 min. The supernatant was diluted 2-fold with ultra-pure water, and the samples were analyzed by LC/MS.
Pharmacokinetic parameters were calculated using WinNonlin software. The following pharmacokinetic parameters were calculated if appropriate plasma drug concentration-time data were available: CL (clearance); Vd (apparent volume of distribution); T1/2 (elimination half-life time); Cmax (peak concentration); Tmax (time to peak); AUC (area under plasma drug concentration-time curve); MRT (mean retention time); F % (bioavailability).

HCC-827 cells = test: Inhibition of cell proliferation, CTG method, HCC-827; type: cell-based; conditions: Homo sapiens, HCC827, 72 hours
Description: as §1, §2, §3, §4

[3] = SD, plasma, IV 3 mg/kg, read-out: Plasma drug concentration
[4] = SD, plasma, PO 10 mg/kg, read-out: Plasma drug concentration

Chain of Ba/F3 EGFR D770_N771insSVD cells (P00533 with tags, fused parts or gaps DUP768-770): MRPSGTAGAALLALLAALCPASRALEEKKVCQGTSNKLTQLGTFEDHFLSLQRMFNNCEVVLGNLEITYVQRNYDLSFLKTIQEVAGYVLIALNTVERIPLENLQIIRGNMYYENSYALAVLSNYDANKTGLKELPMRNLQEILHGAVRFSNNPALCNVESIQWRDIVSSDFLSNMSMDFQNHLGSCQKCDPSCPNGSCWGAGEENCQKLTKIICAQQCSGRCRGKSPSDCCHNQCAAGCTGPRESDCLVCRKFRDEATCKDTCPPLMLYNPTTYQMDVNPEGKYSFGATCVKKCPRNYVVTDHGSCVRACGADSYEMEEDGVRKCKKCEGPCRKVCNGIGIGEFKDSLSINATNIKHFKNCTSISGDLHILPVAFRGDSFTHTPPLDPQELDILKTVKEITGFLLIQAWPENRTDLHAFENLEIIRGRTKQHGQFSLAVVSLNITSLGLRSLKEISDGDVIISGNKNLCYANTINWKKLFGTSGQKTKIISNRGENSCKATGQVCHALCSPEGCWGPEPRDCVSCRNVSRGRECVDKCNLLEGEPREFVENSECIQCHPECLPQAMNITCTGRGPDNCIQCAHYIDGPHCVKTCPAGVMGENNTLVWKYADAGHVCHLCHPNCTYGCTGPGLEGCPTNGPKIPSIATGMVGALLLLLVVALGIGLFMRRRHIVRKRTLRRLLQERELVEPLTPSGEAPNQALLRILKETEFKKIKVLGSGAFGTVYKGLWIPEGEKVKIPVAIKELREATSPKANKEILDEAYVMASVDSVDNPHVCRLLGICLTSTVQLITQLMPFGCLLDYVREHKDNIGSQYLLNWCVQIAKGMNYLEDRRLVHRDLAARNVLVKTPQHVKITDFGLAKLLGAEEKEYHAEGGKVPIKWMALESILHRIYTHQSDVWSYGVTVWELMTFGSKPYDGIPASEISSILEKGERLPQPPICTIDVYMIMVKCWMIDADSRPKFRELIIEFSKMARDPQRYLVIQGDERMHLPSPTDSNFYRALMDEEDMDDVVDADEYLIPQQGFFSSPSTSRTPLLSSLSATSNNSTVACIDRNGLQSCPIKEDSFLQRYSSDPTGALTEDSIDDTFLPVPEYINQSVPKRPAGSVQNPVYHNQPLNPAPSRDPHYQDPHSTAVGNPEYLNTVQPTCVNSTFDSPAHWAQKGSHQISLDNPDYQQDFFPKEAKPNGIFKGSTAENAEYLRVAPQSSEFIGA

Which GI50 [1] does the source give for `COc1c(NC(=O)/C=C/CN(C)C)ccc2ncnc(Nc3cccc(Cl)c3F)c12` [Example 1, (E)-N-(4-((3-chloro-2-fluorophenyl)amino)-5-methoxyquinazolin-6-yl)-4-(dimethylamino)but-2-enamide] here?
The GI50 was 50 to 500 nM.

What about the AUC(0-inf) ([2]; SD, plasma, IV 3 mg/kg) of the same compound?
The AUC(0-inf) was 724 ± 105 ng·h/mL.

And the AUC(0-t) ([2]; SD, plasma, IV 3 mg/kg)?
Its AUC(0-t) is 709 ± 96 ng·h/mL.

What about the Vd ([2]; SD, plasma, IV 3 mg/kg) of the same compound?
Its Vd is 8.76 ± 0.67 L/kg.

What about the half-life ([2]; SD, plasma, IV 3 mg/kg) of the same compound?
Its half-life is 1.45 ± 0.09 h.

And the concentration at 0 hr [2, 3]?
Its concentration at 0 hr is 0 ng/mL.

What about the concentration at 0.083 hr ([2]; SD, plasma, IV 3 mg/kg, time point 0.083 hr, read-out: Plasma drug concentration) of the same compound?
The concentration at 0.083 hr was 888 ± 106 ng/mL.

And the concentration at 0.25 hr [2, 3]?
The concentration at 0.25 hr was 494 ± 121 ng/mL.

What about the concentration at 0.5 hr [2, 3] of the same compound?
Its concentration at 0.5 hr is 365 ± 48 ng/mL.

What about the concentration at 1 hr [2, 3] of the same compound?
The concentration at 1 hr was 175 ± 23 ng/mL.

And the concentration at 2 hr [2, 3]?
Its concentration at 2 hr is 78.2 ± 28.7 ng/mL.

What about the concentration at 4 hr [2, 3] of the same compound?
Its concentration at 4 hr is 18.8 ± 8.7 ng/mL.

What about the concentration at 7 hr [2, 3] of the same compound?
Its concentration at 7 hr is 7.05 ± 3.77 ng/mL.

What about the AUC(0-inf) ([2]; SD, plasma, PO 10 mg/kg) of the same compound?
The AUC(0-inf) was 1780 ± 178 ng·h/mL.

And the AUC(0-t) ([2]; SD, plasma, PO 10 mg/kg)?
Its AUC(0-t) is 1730 ± 170 ng·h/mL.

What about the Cmax ([2]; SD, plasma, PO 10 mg/kg) of the same compound?
The Cmax was 281 ± 73 ng/mL.

And the Tmax ([2]; SD, plasma, PO 10 mg/kg)?
Its Tmax is 1 h.

And the bioavailability ([2]; SD, plasma, PO 10 mg/kg)?
Its bioavailability is 73.6 ± 7.4%.

And the half-life ([2]; SD, plasma, PO 10 mg/kg)?
Its half-life is 3.17 ± 1.22 h.

What about the concentration at 0 hr [2, 4] of the same compound?
Its concentration at 0 hr is 0 ng/mL.

And the concentration at 0.25 hr [2, 4]?
Its concentration at 0.25 hr is 83.2 ± 29.9 ng/mL.

And the concentration at 0.5 hr [2, 4]?
Its concentration at 0.5 hr is 227 ± 58 ng/mL.

What about the concentration at 1 hr [2, 4] of the same compound?
Its concentration at 1 hr is 281 ± 73 ng/mL.

What about the concentration at 2 hr [2, 4] of the same compound?
The concentration at 2 hr was 249 ± 74 ng/mL.

And the concentration at 4 hr [2, 4]?
The concentration at 4 hr was 77.7 ± 7.3 ng/mL.

And the concentration at 7 hr [2, 4]?
Its concentration at 7 hr is 72.6 ± 25.5 ng/mL.

What about the concentration at 24 hr ([2]; SD, plasma, PO 10 mg/kg, time point 24 hr, read-out: Plasma drug concentration) of the same compound?
The concentration at 24 hr was 14.2 ± 19.7 ng/mL.

What about the Cl_obs ([2]; IV 3 mg/kg) of the same compound?
The Cl_obs was 70.0 ± 9.5 mL/min/kg.

And the IC50 (HCC-827 cells)?
Its IC50 is no more than 5 nM.
